Values of other authors in patent US20200000714A1, “OPHTHALMIC COMPOSITION COMPRISING PVP-I” (MEDIVIS S.R.L., priority 2016, published 2020).
Where two headings read alike, the source gives them in different places.

In the case of Povidone-iodine [PVP-I], the “free molecular iodine I2 concentration” value (10% solutions of PVP-I) is given as “about 1 ppm” and the “free molecular iodine I2 concentration” value (solutions with PVP-I concentration of 0.1%) is given as “about 20 ppm”.
